In the supplement of paper PMC10307832:

What was measured:
Experiment in all cases: relative viability (nuclei count vs DMSO), 5 days (fraction); higher = more cells survive
Obatoclax + Luminespib = compound: COC1=CC(c2cc3ccccc3[nH]2)=N/C1=C\c1[nH]c(C)cc1C [Obatoclax] + CCNC(=O)c1noc(-c2cc(C(C)C)c(O)cc2O)c1-c1ccc(CN2CCOCC2)cc1 [Luminespib] (partner 0.01 µM)
How it was run: (§1)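 Lung cancer cell lines were pin-tool dosed in 1536-well plates on the day after seeding, with either a lone drug or a fixed anchor-drug dose plus five library-drug doses (not always all listed) in √10 steps. Nuclei were counted on 4× images after 5 days. Relative viability is the ratio of treated-well to vehicle-well nuclei counts, with each value a median of duplicate plates.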

[1] = compound: CC1=CC(=NN1)NC2=CC(=NC(=N2)/C=C/C3=CC=CC=C3)N4CCN(CC4)C + Nc1nc2[nH]cc(CCc3ccc(C(=O)N[C@@H](CCC(=O)O)C(=O)O)cc3)c2c(=O)[nH]1 [Pemetrexed] (partner 0.2 µM)
How it was run: as §1

Obatoclax + Dasatinib = compound: COC1=CC(c2cc3ccccc3[nH]2)=N/C1=C\c1[nH]c(C)cc1C [Obatoclax] + Cc1nc(Nc2ncc(C(=O)Nc3c(C)cccc3Cl)s2)cc(N2CCN(CCO)CC2)n1 [Dasatinib] (partner 0.075 µM)
How it was run: as §1

Obatoclax + Crizotinib = compound: COC1=CC(c2cc3ccccc3[nH]2)=N/C1=C\c1[nH]c(C)cc1C [Obatoclax] + C[C@@H](Oc1cc(-c2cnn(C3CCNCC3)c2)cnc1N)c1c(Cl)ccc(F)c1Cl [Crizotinib] (partner 1 µM)
How it was run: as §1

Cell Line	relative viability (Obatoclax + Luminespib; first compound 0.01 µM)	relative viability (Obatoclax + Luminespib; first compound 0.03162 µM)	relative viability (Obatoclax + Luminespib; first compound 0.1 µM)	relative viability (Obatoclax + Luminespib; first compound 0.3162 µM)	relative viability (Obatoclax + Luminespib; first compound 1 µM)	relative viability ([1]; first compound 0.08 µM)	relative viability ([1]; first compound 0.253 µM)	relative viability ([1]; first compound 0.8 µM)	relative viability ([1]; first compound 2.53 µM)	relative viability ([1]; first compound 8 µM)	relative viability (Obatoclax + Dasatinib; first compound 0.01 µM)	relative viability (Obatoclax + Dasatinib; first compound 0.03162 µM)	relative viability (Obatoclax + Dasatinib; first compound 0.1 µM)	relative viability (Obatoclax + Dasatinib; first compound 0.3162 µM)	relative viability (Obatoclax + Dasatinib; first compound 1 µM)	relative viability (Obatoclax + Crizotinib; first compound 0.01 µM)	relative viability (Obatoclax + Crizotinib; first compound 0.03162 µM)	relative viability (Obatoclax + Crizotinib; first compound 0.1 µM)	relative viability (Obatoclax + Crizotinib; first compound 0.3162 µM)	relative viability (Obatoclax + Crizotinib; first compound 1 µM)
NCI-H2342	0.592	0.87	0.777	0.644	0.716	0.642	0.81	0.819	0.769	0.473	0.365	0.303	0.347	0.285	0.302	–	–	–	–	–
HCC-827	0.676	0.575	0.6	0.706	0.76	0.159	0.241	0.262	0.266	0.171	0.451	0.292	0.417	0.407	0.388	0.86	0.847	0.957	0.876	0.772
NCI-H322M	0.949	0.809	–	0.758	0.39	0.615	0.622	0.616	0.308	0.273	0.257	0.259	–	0.259	0.28	0.822	0.932	0.845	1.01	0.96
ChaGo-K-1	0.718	0.565	0.487	0.561	0.426	0.259	0.264	0.27	0.227	0.17	0.637	0.582	0.502	0.584	0.644	1.26	0.996	–	1.15	1.02
BEN	0.507	0.243	–	0.26	0.291	0.723	0.809	0.699	0.476	0.323	0.321	0.312	–	0.41	0.272	0.897	0.841	0.853	0.75	0.817
NCI-H2347	0.595	0.374	–	0.269	0.23	0.418	0.415	0.447	0.397	0.379	0.305	0.281	–	0.308	0.324	0.738	0.671	0.556	0.742	0.382
HCC-366	–	–	–	–	–	0.171	0.189	0.187	0.0462	0.0222	0.667	0.574	0.39	0.574	0.533	0.63	0.554	0.468	0.533	0.354
Calu-6	–	–	–	–	–	–	–	–	–	–	–	–	–	–	–	0.778	0.769	0.736	0.739	0.137
HCC-44	1.07	0.992	0.658	0.65	0.167	0.642	0.644	0.631	0.622	0.557	–	–	–	–	–	0.786	0.684	0.8	0.721	0.228
NCI-H522	1.17	1.1	1.07	–	1.01	0.992	0.848	0.957	0.894	0.622	1.03	0.757	0.696	0.851	0.573	–	–	–	–	–
ABC-1	0.551	0.555	–	0.322	0.397	–	–	–	–	–	0.498	0.55	0.369	0.551	0.375	1.2	1.18	1.6	1.06	0.723
NCI-H1703	–	–	–	–	–	–	–	–	–	–	–	–	–	–	–	0.762	0.697	0.394	0.348	0.311
NCI-H1648	–	–	–	–	–	0.689	0.803	0.836	0.745	0.47	–	–	–	–	–	–	–	–	–	–
HCC-78	–	–	–	–	–	0.804	0.91	0.926	0.938	0.874	0.48	0.406	0.419	0.324	0.418	0.326	0.34	–	0.317	0.314
NCI-H1793	0.119	0.128	0.187	0.183	0.192	0.698	1.03	0.644	0.137	0.0795	0.404	0.405	0.321	0.395	0.418	–	–	–	–	–
NCI-H727	0.278	0.344	0.347	0.316	0.342	–	–	–	–	–	0.438	0.287	0.512	0.39	0.348	0.828	0.792	0.832	0.87	0.605
SW 900	0.164	0.153	0.179	0.131	0.148	0.469	0.491	0.49	0.407	0.102	0.637	0.627	0.543	0.206	0.153	–	–	–	–	–
EBC-1	–	–	–	–	–	–	–	–	–	–	–	–	–	–	–	0.176	0.198	0.197	0.19	0.168
NCI-H1395	0.634	0.491	0.701	0.523	0.421	0.875	0.814	0.714	0.357	0.233	0.417	0.416	0.399	0.412	0.432	–	–	–	–	–
NCI-H1299	–	–	–	–	–	–	–	–	–	–	–	–	–	–	–	0.918	0.944	0.959	0.921	0.492
A549	–	–	–	–	–	–	–	–	–	–	–	–	–	–	–	0.75	0.799	0.752	0.664	0.0778
NCI-H1623	0.561	0.437	0.662	0.571	0.547	–	–	–	–	–	0.548	0.502	0.499	0.572	0.52	–	–	–	–	–
IA-LM	–	–	–	–	–	–	–	–	–	–	–	–	–	–	–	0.667	0.91	0.529	0.0663	0.0759
